Measurements: patent publication US20030027722A1, “Influencing the activity of plant growth regulators” (priority 1998, published 2003)

Key:
[1] = test system: cut flowers (carnations); test: retarding the aging of cut flowers; type: in vivo, carnation; details: in water, concentration 5×10^−5 to 10^−3 M, carnations
Method: The DMF was evaporated and the remaining solid was dissolved in methanol and filtered. Diluted hydrochloric acid was added to the methanol solution. After 2 hours at room temperature the solvent was evaporated and G-A-A was obtained.

[2] = test system: rose, chrysanthemum, carnation; test: rooting powder comparison, average over species; type: in vivo; details: average over the species tested
From the text: (§1) d) In Table 2 standard indol butyric acid (IBA), which is the active component in most currently used rooting powders, is compared with indol hexanolic acid (IHA) and two BSA adducts, both—coupled, namely IBA and indole acetic acid (BSA-N-IAA). The effect on rooting and the plant development (stem growth, outgrowth of new shoots, synchronicity of growth of a population of plants) were inter alia factors determining the place in the categories which ranged from 1 to 6. The compounds with the best relative overall effect on rooting and development were placed in category I. Rooting and subsequent development of scions for different types of herbaceous and woody plants differs largely for those types of plants. A rose cultivar, “enermus stur cinq”, was used as an example of a recalcitrant woody plant. The chrysanthemum species “regan” is an example of an easy to root herbaceous plant.

[3] = test system: chrysanthemum; test: rooting powder comparison, rooting and development of scions, chrysanthemum; type: in vivo; parameters: key: 1: The compounds with the best relative overall effect on rooting and development were placed in category I; categories which ranged from 1 to 6
From the text: as §1

[4] = test system: tissue explants of rose; test: shoot formation on tissue explants of rose; type: cell-based
Method: It was also observed that tissue explants of rose when treated with IBA (normal addition) or IHA, respectively, formed about 50 times more shoots (2 shoots versus 100 per 20 tissue explants) in the latter case.
In the studies for new applications of PGRs and/or elicitors, which were performed within the framework of the present invention, several new and unexpected observations were made. […] Furthermore, the inventors established that elicitors do cause a statistically significant growth retardation of all tissues, as can be illustrated for rose shoots. This effect was enhanced by PGR(s), in casu antigibberelins, i.e. paclobutrasol. […] Finally the observation was made that when tissue explants of rose were treated with respectively IBA (normal addition) or IHA, in the last case about 50 times more shoots were formed (2 shoots versus 100 per 20 tissue explants).

[5] = test system: rose; test: rooting powder comparison, rooting and development of scions, rose; type: in vivo; parameters: key: 1: The compounds with the best relative overall effect on rooting and development were placed in category I; categories which ranged from 1 to 6
From the text: as §1

[6] = test system: plantroots; test: root induction by chemically modified auxins on various plants; details: in vivo
From the text: Attaching IAA to BSA is done to increase the amount of IAA administered to the roots. Up to 32 IAA molecules can be attached to BSA in 2 different ways. Either as N-conjugate of IAA or as C-conjugate. Upon addition of the IAA-BSA to plantroots, the IAA is split off in the root and leads to the availability of IAA during a longer period allowing the root tissue to become sensitive.

[7] = test system: apple stalk slices; test: rooting regeneration on apple stalk slices with elicitors; type: cell-based; details: roots, apple, 1 μM indolebutyric or indoleacetic acid, 1 or 3 days
Method: The effect of the elicitors on rooting regeneration on apple stalk slices was studied. The stalk slices were incubated on medium with elicitors in combination with a sub-optimal auxin concentration (1 μM indolebutyric acid or 1 μM indoleacetic acid) which were added for 1 or 3 days to the plant tissue for testing. The increase was measured in the number of regenerated roots compared to the auxin control.

[8] = test system: apple; test: roots per tissue fragment in apple; type: cell-based
From the text: An apple IAA may induce a maximum of 3.5 roots per tissue fragment, while IAA-N-BSA induces a maximum of 8 roots per tissue fragment. Very recalcitrant trees like summer oak and cork oak can be rooted to a much higher percentage than with any of the conventionally applied rooting powders. The compounds described in EXAMPLE 3 and together with elicitors in Table 1 show similar effects.

[9] = test system: Brassica napens; test: microspore embryogenesis; type: cell-based; details: in combination with colchicine
[10] = test system: apple and rose; test: rooting in apple and rose, stem-disk method; type: cell-based; details: rooting powder, stem-disks
Method: The auxin compounds were tested with respect to rooting in apple and rose
b) Tests are performed by the stem-disk method as published by Van der Krieken et al., Plant Cell Reports (1993), vol. 12, 203-206, in which the number of roots of a large number of stem-disks cut from a particular plant are counted and treated with rooting powder containing in this case the compounds described.

CC(C)(NC(=O)CCC(=O)NC(C)(C)C(=O)O)C(=O)O [A-S-A]
activity in retarding the aging of the flowers, times relative to non-modified AIB [1]: 50

indole butyric acid [IBA, reference compound]
average category [2]: 2.25
category of relative overall effect on rooting and plant development ([3]; chrys. regan (easy to root herbaceous plant)): 4
category of relative overall effect on rooting and plant development ([3]; chrys. snowdon): 1
shoots formed [4]: 2 shoots per 20 tissue explants
category of relative overall effect on rooting and plant development ([5]; rose enermus stur cinq (recalcitrant woody plant)): 3
category of relative overall effect on rooting and plant development ([5]; rose n. brier): 1

IAA-C-BSA: indoleacetic acid-C-conjugate with BSA
effectiveness in root induction, comparison [6]: somewhat less effective in root induction as IAA-N-BSA, but still better than IAA alone

C=CC(C)(C)OC[C@H]1O[C@H](O[C@@H]2C3=C([C@H](C)COC(C)=O)C[C@H](O)[C@]3(C)/C=C3/[C@@H](COC)CC[C@H]3[C@@H](C)[C@H]2O)[C@H](O)[C@@H](OC(C)=O)[C@@H]1O [fusicocine]
increased regeneration in relation to control (auxin alone) ([7]; elicitor 0.01 μM): 75%

O=C(O)Cc1c[nH]c2ccccc12 [IAA, indole-3-acetic acid, reference compound]
maximum of roots per tissue fragment [8]: 3.5 roots per tissue fragment

O=C(OC[C@H]1O[C@@H](OC(=O)c2cc(O)c(O)c(OC(=O)c3cc(O)c(O)c(O)c3)c2)[C@H](OC(=O)c2cc(O)c(O)c(OC(=O)c3cc(O)c(O)c(O)c3)c2)[C@@H](OC(=O)c2cc(O)c(O)c(OC(=O)c3cc(O)c(O)c(O)c3)c2)[C@@H]1OC(=O)c1cc(O)c(O)c(OC(=O)c2cc(O)c(O)c(O)c2)c1)c1cc(O)c(O)c(OC(=O)c2cc(O)c(O)c(O)c2)c1 [tannic acid]
increased regeneration in relation to control (auxin alone) ([7]; elicitor 1 μM): 225%

CCCCCCCCC(=O)O [nonanoic acid]
increase in microspore embryogenesis [9]: 125%
increased regeneration in relation to control (auxin alone) ([7]; elicitor 0.1-1 μM): 300%

CC(C)(NC(=O)CCCc1c[nH]c2ccccc12)C(=O)O [IBA-AIB]
rooting compared with standard hormone treatment / IBA alone [10]: more active than the standard hormone treatment
